The subject of this assay is female C57BL6 mice. The assay is described as follows: Elevated plus maze (with or without restraint stress). It counts as in vivo, mouse. An excerpt: Animal subjects. Prepubertal and pubertal female C57BL6 mice (3½-6 weeks old, +/+ and δ^−/−1) were housed in a reverse light:dark cycle (12:12). Both sets of mice were originally supplied by G. Homanics (Univ. of Pittsburgh), and were bred on site, with +/+ mice supplemented from Jackson Laboratories (Bar Harbor, Me.). Initially, age-matched+/+littermates of the δ^−/−were used as controls, but because they were indistinguishable from C57BL6, data from both groups were pooled. Genotyping of the tails verified that mice were homozygous δ^−/−. Some animals (+/+ or δ^−/−) were injected with finasteride (1,(5α)-androstene-4-aza-3-one-N-tert-butyl-17β-carboxaminde, Steraloids, 50 mg kg^, −1 intraperitoneally, 3 days) to block THP synthesis^2 or oil vehicle on a daily basis 1-1.5 h before dark onset, when THP levels increase, and tested 30 min. later. The onset of puberty was determined by vaginal opening, and pubertal mice tested on the day of first metestrus, identified by vaginal morphology and verification of first estrus the previous day. Mice with vaginal smears representative of diestrus were excluded from the study. Individual stages of puberty were not distinguished, and pre-pubertal mice were used before any visible signs of pubertal development, assessed by development of the peri-vaginal area. In some cases, pubertal mice were injected with replacement THP (3α-OH-5β-pregnan-20-one, 10 mg kg^−1, intraperitoneally in oil) for three days before testing. Procedures were in accordance with the SUNY Downstate Institutional Animal Care and Use Committee.
Restraint stress. In order to test the effect stress-induced release of THP^6,46,47 on anxiety, mice were restrained in a clear Plexiglas tube-type holder (Harvard Apparatus) for 45 min. and tested 20 min. later on the elevated plus maze (see Supplementary Methods). Open arm time was evaluated for 5 min. on the elevated plus maze. A decrease in open arm time reflects an increase in anxiety^18. In all cases, the results from each mouse tested after restraint was expressed relative to the averaged results from the sham controls, which were identical to the stressed animals (age, genotype, sex, drug-injected), except that they were not subjected to restraint stress.
Elevated plus maze. Testing rodent behavior on the elevated plus maze is an established animal model of anxiety^31. The plus maze consists of four 8×35 cm arms at 90° angles, elevated 57 cm above the floor. Two arms are enclosed by 33 cm walls, and two arms have no walls (“open arms”). […] Each animal was initially acclimated to the room for 30 min-1 h before being placed in the center of the maze, and exploratory activity recorded for 5 min. […]

Results on one compound are retold here after US20090269795A1, “Mutant alpha4betadelta GABAA receptor and methods of treating anxiety or irritability” (priority 2007, published 2009).

For `CC(=O)[C@H]1CC[C@H]2[C@@H]3CC[C@H]4C[C@H](O)CC[C@]4(C)[C@H]3CC[C@]12C` [THP, 3α-OH-5α[β]-pregnan-20-one], the “decrease of open arm time” value (10 mg kg−1 intraperitoneally, acute, after onset of puberty) is 35±8%. In addition, under “10 mg kg−1 intraperitoneally, after onset of puberty”, the locomotor activity result was “without changing locomotor activity”. For the same compound, for the setting “replacement THP 10 mg kg−1 i.p. for three days at puberty”, the “anxiety response to stress after steroid replacement” value is “did not exhibit an anxiety response to stress”.
